# Data as given in ChEMBL document CHEMBL3885881, “DrugMatrix”.
# Species on record: Rattus norvegicus
# Assay: DrugMatrix - Regimen: Daily Repeat
# Assay type: toxicity, organism-based, Sprague-Dawley
# Set-up: regimen Daily Repeat, gender Male, age 6-8 weeks
# Conditions: in vivo, po, route oral GAVAGE, […]; for ABSOLUTE BASOPHIL / ABSOLUTE EOSINOPHIL / ABSOLUTE LYMPHOCYTE / ABSOLUTE MONOCYTE / ABSOLUTE SEGMENTED NEUTROPHIL / BASOPHIL / EOSINOPHIL / ERYTHROCYTE COUNT / HEMATOCRIT / HEMOGLOBIN / LEUKOCYTE COUNT / LYMPHOCYTE / MEAN CORPUSCULAR HEMOGLOBIN / MEAN CORPUSCULAR HEMOGLOBIN CONCENTRATION / MEAN CORPUSCULAR VOLUME / MONOCYTE / NEUTROPHIL / NUCLEATED RED BLOOD CELLS / PLATELET COUNT: tissue Blood; for ALANINE AMINOTRANSFERASE / ALBUMIN / ALKALINE PHOSPHATASE / ASPARTATE AMINOTRANSFERASE / BLOOD UREA NITROGEN / CARBON DIOXIDE / CHLORIDE / CHOLESTEROL / CREATINE PHOSPHOKINASE / CREATININE / GLUCOSE / LACTATE DEHYDROGENASE / LIPASE / PHOSPHORUS / POTASSIUM / SODIUM / TOTAL BILIRUBIN / TOTAL PROTEIN / URIC ACID: tissue Plasma
# [1] = 0 mg/kg, 72 h, dose level Control, time 3 day
# [2] = 0 mg/kg, 120 h, dose level Control, time 5 day
# [3] = 6 mg/kg, 72 h, dose level Low, time 3 day
structure (smiles),measurement,setting,value
CO[C@H]1O[C@@H]2O[C@@]3(C)CC[C@H]4[C@H](C)CC[C@@H]([C@H]1C)[C@@]24OO3,ABSOLUTE BASOPHIL,[1],0 CELLS/uL
same,ABSOLUTE EOSINOPHIL,[1],138.5 CELLS/uL
same,ABSOLUTE LYMPHOCYTE,[1],13978.67 CELLS/uL
same,ABSOLUTE MONOCYTE,[1],391 CELLS/uL
same,ABSOLUTE SEGMENTED NEUTROPHIL,[1],1608.5 CELLS/uL
same,BASOPHIL,[1],0%
same,EOSINOPHIL,[1],1%
same,ERYTHROCYTE COUNT,[1],5.8 x10E6/uL
same,HEMATOCRIT,[1],36.22%
same,HEMOGLOBIN,[1],13.65 G/DL
same,LEUKOCYTE COUNT,[1],16.12 x10E3/uL
same,LYMPHOCYTE,[1],86.67%
same,MEAN CORPUSCULAR HEMOGLOBIN,[1],23.58 pg
same,MEAN CORPUSCULAR HEMOGLOBIN CONCENTRATION,[1],37.72 G/DL
same,MEAN CORPUSCULAR VOLUME,[1],62.52 fL
same,MONOCYTE,[1],2.5%
same,NEUTROPHIL,[1],9.83%
same,NUCLEATED RED BLOOD CELLS,[1],0 /100WBC
same,PLATELET COUNT,[1],1214.17 x10E3/uL
same,ALANINE AMINOTRANSFERASE,[1],59.5 u/L
same,ALBUMIN,[1],4.1 G/DL
same,ALKALINE PHOSPHATASE,[1],393.83 u/L
same,ASPARTATE AMINOTRANSFERASE,[1],87.83 u/L
same,BLOOD UREA NITROGEN,[1],16.33 mg/dL
same,CARBON DIOXIDE,[1],28.17 mmol/L
same,CHLORIDE,[1],100.83 MEQ/L
same,CHOLESTEROL,[1],73.33 mg/dL
same,CREATINE PHOSPHOKINASE,[1],398 u/L
same,CREATININE,[1],0.2 mg/dL
same,GLUCOSE,[1],152.67 mg/dL
same,LACTATE DEHYDROGENASE,[1],501.5 u/L
same,LIPASE,[1],9.5 u/L
same,PHOSPHORUS,[1],10.77 mg/dL
same,POTASSIUM,[1],6.44 MEQ/L
same,SODIUM,[1],143.4 MEQ/L
same,TOTAL BILIRUBIN,[1],0.17 mg/dL
same,TOTAL PROTEIN,[1],5.92 G/DL
same,URIC ACID,[1],1.68 mg/dL
same,ABSOLUTE BASOPHIL,[2],0 CELLS/uL
same,ABSOLUTE EOSINOPHIL,[2],183.33 CELLS/uL
same,ABSOLUTE LYMPHOCYTE,[2],14952.83 CELLS/uL
same,ABSOLUTE MONOCYTE,[2],238.5 CELLS/uL
same,ABSOLUTE SEGMENTED NEUTROPHIL,[2],1642 CELLS/uL
same,BASOPHIL,[2],0%
same,EOSINOPHIL,[2],1%
same,ERYTHROCYTE COUNT,[2],5.89 x10E6/uL
same,HEMATOCRIT,[2],36.13%
same,HEMOGLOBIN,[2],13.37 G/DL
same,LEUKOCYTE COUNT,[2],17.02 x10E3/uL
same,LYMPHOCYTE,[2],87.17%
same,MEAN CORPUSCULAR HEMOGLOBIN,[2],22.73 pg
same,MEAN CORPUSCULAR HEMOGLOBIN CONCENTRATION,[2],37.02 G/DL
same,MEAN CORPUSCULAR VOLUME,[2],61.45 fL
same,MONOCYTE,[2],1.5%
same,NEUTROPHIL,[2],10.33%
same,NUCLEATED RED BLOOD CELLS,[2],0 /100WBC
same,PLATELET COUNT,[2],1183.5 x10E3/uL
same,ALANINE AMINOTRANSFERASE,[2],54.83 u/L
same,ALBUMIN,[2],4.28 G/DL
same,ALKALINE PHOSPHATASE,[2],363.17 u/L
same,ASPARTATE AMINOTRANSFERASE,[2],96.83 u/L
same,BLOOD UREA NITROGEN,[2],15.67 mg/dL
same,CARBON DIOXIDE,[2],26.17 mmol/L
same,CHLORIDE,[2],102.67 MEQ/L
same,CHOLESTEROL,[2],63.67 mg/dL
same,CREATINE PHOSPHOKINASE,[2],594.33 u/L
same,CREATININE,[2],0.2 mg/dL
same,GLUCOSE,[2],182.33 mg/dL
same,LACTATE DEHYDROGENASE,[2],656.5 u/L
same,LIPASE,[2],9.33 u/L
same,PHOSPHORUS,[2],11.7 mg/dL
same,POTASSIUM,[2],5.92 MEQ/L
same,SODIUM,[2],142.62 MEQ/L
same,TOTAL BILIRUBIN,[2],0.13 mg/dL
same,TOTAL PROTEIN,[2],5.85 G/DL
same,URIC ACID,[2],1.8 mg/dL
same,ABSOLUTE BASOPHIL,[3],0 CELLS/uL
same,ABSOLUTE EOSINOPHIL,[3],0 CELLS/uL
same,ABSOLUTE LYMPHOCYTE,[3],14690 CELLS/uL
same,ABSOLUTE MONOCYTE,[3],490.33 CELLS/uL
same,ABSOLUTE SEGMENTED NEUTROPHIL,[3],1319.67 CELLS/uL
same,BASOPHIL,[3],0%
same,EOSINOPHIL,[3],0%
same,ERYTHROCYTE COUNT,[3],5.7 x10E6/uL
same,HEMATOCRIT,[3],36.23%
same,HEMOGLOBIN,[3],13.63 G/DL
same,LEUKOCYTE COUNT,[3],16.5 x10E3/uL
same,LYMPHOCYTE,[3],88.67%
same,MEAN CORPUSCULAR HEMOGLOBIN,[3],23.93 pg
same,MEAN CORPUSCULAR HEMOGLOBIN CONCENTRATION,[3],37.67 G/DL
same,MEAN CORPUSCULAR VOLUME,[3],63.6 fL
same,MONOCYTE,[3],3%
same,NEUTROPHIL,[3],8.33%
same,NUCLEATED RED BLOOD CELLS,[3],0 /100WBC
same,PLATELET COUNT,[3],1120 x10E3/uL
same,ALANINE AMINOTRANSFERASE,[3],66.67 u/L
same,ALBUMIN,[3],4.17 G/DL
same,ALKALINE PHOSPHATASE,[3],405.67 u/L
same,ASPARTATE AMINOTRANSFERASE,[3],88.33 u/L
same,BLOOD UREA NITROGEN,[3],16.33 mg/dL
same,CARBON DIOXIDE,[3],25.67 mmol/L
same,CHLORIDE,[3],103 MEQ/L
same,CHOLESTEROL,[3],70.33 mg/dL
same,CREATINE PHOSPHOKINASE,[3],249.33 u/L
same,CREATININE,[3],0.21 mg/dL
same,GLUCOSE,[3],155.33 mg/dL
same,LACTATE DEHYDROGENASE,[3],155 u/L
same,LIPASE,[3],9.33 u/L
same,PHOSPHORUS,[3],11.6 mg/dL
same,POTASSIUM,[3],6.23 MEQ/L
same,SODIUM,[3],145.23 MEQ/L
same,TOTAL BILIRUBIN,[3],0.2 mg/dL
same,TOTAL PROTEIN,[3],5.8 G/DL
same,URIC ACID,[3],1.47 mg/dL
